Common to all, as to format: in vivo
In assay [1] the test system is Abutilon theophrasti (ABUTH). Put plainly: Glasshouse herbicide test, post-emergence. The conditions noted are these: POST Application; 500 g/h; evaluated after 13 days. A digest of the protocol:
(§1)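 Pot-grown plants were sprayed 1 day (pre-emergence) or 8 days (post-emergence) after sowing with compound at 500 g/h in acetone/water with 0.5% Tween 20. Glasshouse at 24/16 °C, 14 h light, 65% humidity; damage assessed after 13 days, scored 1–5 (5 = 80–100%, 1 = 0–19%).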

Assay [2] deals with Amaranthus retoflexus (AMARE). The experiment in a line: Glasshouse herbicide test, post-emergence. The note with it: POST Application; 500 g/h; evaluated after 13 days. A digest of the protocol: as §1
The subject of assay [3] is Echinochloa crus-galli (ECHCG). The experiment in a line: Glasshouse herbicide test, post-emergence. The note with it: POST Application; 500 g/h; evaluated after 13 days. A digest of the protocol:
as §1

Assay [4] concerns Ipomoea hederacea (IPOHE). The experiment in a line: Glasshouse herbicide test, post-emergence. The conditions noted are these: POST Application; 500 g/h; evaluated after 13 days. A digest of the protocol:
as §1

For assay [5], the system named is Setaria faberi (SETFA). The experiment in a line: Glasshouse herbicide test, post-emergence. The note with it: POST Application; 500 g/h; evaluated after 13 days. In a few lines: as §1
In assay [6] the test system is Abutilon theophrasti (ABUTH). The experiment in a line: Glasshouse herbicide test, pre-emergence. The conditions noted are these: PRE Application; 500 g/h; evaluated after 13 days. A digest of the protocol:
as §1

In assay [7] the test system is Amaranthus retoflexus (AMARE). Put plainly: Glasshouse herbicide test, pre-emergence. The note with it: PRE Application; 500 g/h; evaluated after 13 days. A digest of the protocol:
as §1

Assay [8] concerns Echinochloa crus-galli (ECHCG). Put plainly: Glasshouse herbicide test, pre-emergence. The note with it: PRE Application; 500 g/h; evaluated after 13 days. In a few lines:
as §1

Assay [9] deals with Ipomoea hederacea (IPOHE). The experiment in a line: Glasshouse herbicide test, pre-emergence. The conditions noted are these: PRE Application; 500 g/h; evaluated after 13 days. In a few lines:
as §1

Assay [10] has as its system Setaria faberi (SETFA). Put plainly: Glasshouse herbicide test, pre-emergence. The note with it: PRE Application; 500 g/h; evaluated after 13 days. A digest of the protocol: as §1
For assay [11], the system named is Amaranthus retroflexus (AMARE). Put plainly: Comparative experiment, post-emergence phytotoxicity. The conditions noted are these: POST Application; Rate 125 g/ha. As to the method:
(§2) A comparative experiment is conducted to show the advantage provided by the compounds of the present invention. Thus the biological performance of representative compounds 1.001, 1.043, 2.002 & 2.024 of the present invention are compared with Compound C1, which is an aniline compound of the type referred to in WO2012/028579. Results are given as (%) phytotoxicity observed.

In assay [12] the test system is Setaria faberi (SETFA). Described as above. The conditions noted are these: POST Application; Rate 125 g/ha. As to the method: as §2

`CCCON(C)c1c(S(C)(=O)=O)ccc(C(=O)Nc2nnc(C)o2)c1Cl` [Compound 2.024]: the “percentage damage caused to the plant, five point scale, ABUTH” value in assay [1] and in assay [6] was 5 (5=80-100%) each time. For the same compound, the “percentage damage caused to the plant, five point scale, AMARE” value in assay [2] and in assay [7] was 5 (5=80-100%) in each case. Further, the “percentage damage caused to the plant, five point scale, ECHCG” value in assay [3] and in assay [8] was 5 (5=80-100%) throughout. For the same compound, the “percentage damage caused to the plant, five point scale, IPOHE” value in [4] and in [9] was 5 (5=80-100%) each time. The “percentage damage caused to the plant, five point scale, SETFA” value in assay [5] and in [10] was 5 (5=80-100%) in each case. Besides, in assay [11], the “(%) phytotoxicity observed, AMARE” value was 80%. For the same compound, in assay [12], the “(%) phytotoxicity observed, SETFA” value came out at 80%.

Source of the values: patent US11851411B2, “Herbicidal compounds” (SYNGENTA CROP PROTECTION AG, priority 2018, dated 2023).
